The record followed here is ChEMBL document CHEMBL5120971, “Network Pharmacology Research and Dual-omic Analyses Reveal the Molecular Mechanism of Natural Product Nodosin Inhibiting Muscle-Invasive Bladder Cancer in Vitro and in Vivo” (J Nat Prod, 2022).

Activity calls are given as the source filed them. No cut-off for these calls is given here.

Assay [1] relates to T-24. Nature of the assay: Antiproliferative activity against human T24 cells assessed as reduction in Ki67 expression at 4 to 12 uM measured after 24 hrs by DAPI staining based immunofluorescence analysis. The class given is functional, cell-based. Particulars: dose 4-12 µM.
The test system of assay [2] is T-24. As to the kind of experiment: Induction of apoptosis in human T24 cells assessed as effect on AIFM2 expression at 6 uM measured after 24 to 30 hrs by proteomic analysis. The format is functional, cell-based. The following applies: time 24-30 hrs.
The test system of assay [3] is T-24. As to the kind of experiment: Antimigratory activity against human T24 cells assessed as down regulation of LIMA1 expression at 6 uM measured after 24 to 30 hrs by proteomic analysis. Particulars: time 24-30 hrs. The format is functional, cell-based.
Assay [4] deals with T-24. Nature of the assay: Induction of apoptosis in human T24 cells assessed as up regulation of HMOX1 gene expression at 6 uM measured after 12 to 18 hrs by transcriptome analysis. The class given is functional, cell-based. Particulars: time 12-18 hrs.
In assay [5] the test system is T-24. Nature of the assay: Induction of apoptosis in human T24 cells assessed as effect on G0S2 expression at 6 uM measured after 24 to 30 hrs by proteomic analysis. The format is functional, cell-based. The following applies: time 24-30 hrs.
Assay [6] deals with T-24. As to the kind of experiment: Cytotoxicity against human T24 cells assessed as reduction in cell growth at 4 uM by CCK8 assay. The class given is functional, cell-based. Particulars: time 24-72 hrs, TDE = time-dependent effect. Background: Tetrazolium dyes change colour on reduction, which living cells bring about.
The subject of assay [7] is T-24. As to the kind of experiment: Antimigratory activity against human T24 cells assessed as down regulation of ITGA3 expression at 6 uM measured after 24 to 30 hrs by proteomic analysis. The format is functional, cell-based. The following applies: time 24-30 hrs.
Assay [8] concerns T-24. Nature of the assay: Effect on DDB1 expression in human T24 cells at 6 uM measured after 24 to 30 hrs by proteomic analysis. Particulars: time 24-30 hrs. The format is functional, cell-based.
In assay [9] the test system is T-24. Nature of the assay: Induction of autophagy in human T24 cells assessed as effect on SQSTM1 gene expression at 6 uM measured after 12 to 18 hrs by transcriptome analysis. The format is functional, cell-based. Particulars: time 12-18 hrs.
Assay [10] concerns T-24. Nature of the assay: Induction of apoptosis in human T24 cells assessed as late apoptotic cells at 4 uM measured after 48 hrs by Annexin V-FITC/propidium iodide staining based flow cytometry (reference value: 0.74%). The class given is functional. (In general: A flow cytometer gives signals particle by particle.)
Assay [11] relates to T-24. As to the kind of experiment: Induction of morphological changes in human T24 cells assessed as cell shrinkage at 4 to 12 uM measured after 48 hrs by microscopy. Particulars: dose 4-12 µM. The class given is functional, cell-based.
The subject of assay [12] is T-24. Nature of the assay: Induction of apoptosis in human T24 cells assessed as viable cells at 4 uM measured after 48 hrs by Annexin V-FITC/propidium iodide staining based flow cytometry (reference value: 97.49%). Particulars: read-out: Activity. The class given is functional.
The subject of assay [13] is T-24. Nature of the assay: Induction of autophagy in human T24 cells assessed as effect on CISD2 gene expression at 6 uM measured after 12 to 18 hrs by transcriptome analysis. The format is functional, cell-based. The following applies: time 12-18 hrs.
Assay [14] concerns T-24. As to the kind of experiment: Induction of autophagy in human T24 cells assessed as effect on WDR41 gene expression at 6 uM measured after 12 to 18 hrs by transcriptome analysis. The class given is functional, cell-based. Particulars: time 12-18 hrs.

Turning to `C=C1C(=O)[C@]23C[C@H]1C[C@@H](O)[C@H]2[C@@]12CO[C@@H](O)[C@@H]1C(C)(C)CC[C@@H]2OC3=O` [NODOSIN], the result in [1], in assay [2], in [3], in assay [4], in assay [5] and in assay [7] was Active. Besides, the result in [8], in [9], in [11], in assay [13] and in assay [14] was Active. The figures for the Activity entry in assay [6] and in [10] were “Tde” and 1.34%, respectively. Further, in [12], the viability at 4 µM came to 96.1%.
